Source: ChEMBL document CHEMBL3785086, “Design and synthesis of natural product derivatives with selective and improved cytotoxicity based on a sesquiterpene scaffold” (Bioorg Med Chem Lett, 2016)

Experiments:
[1] = tested on: MCF7; assay: Cytotoxicity against human MCF7 cells assessed as cell proliferation after 24 hrs by CCK-8 assay; type: functional, cell-based; settings: MCF7, 24 h
[2] = tested on: HeLa; assay: Cytotoxicity against human HeLa cells assessed as cell proliferation after 24 hrs by CCK-8 assay; type: functional, cell-based
[3] = Cytotoxicity against human HO8910 cells assessed as cell proliferation after 24 hrs by CCK-8 assay; type: functional, cell-based; settings: HO-8910, 24 h
[4] = tested on: A549; assay: Cytotoxicity against human A549 cells assessed as cell proliferation after 24 hrs by CCK-8 assay; type: functional, cell-based; settings: A549, 24 h
[5] = Cytotoxicity against human T24 cells assessed as cell proliferation after 24 hrs by CCK-8 assay; type: functional, cell-based; settings: T-24, 24 h
[6] = Cytotoxicity against human BGC823 cells assessed as cell proliferation after 24 hrs by CCK-8 assay; type: functional, cell-based; settings: BGC-823, 24 h
[7] = Cytotoxicity against mouse NIH/3T3 cells assessed as cell proliferation after 24 hrs by CCK-8 assay; type: cell-based; settings: NIH3T3, 24 h

C/C(=C\c1cc(C2=CCCCC2)co1)C(N)=O
IC50 [1]: 6.58 µM
IC50 [2]: > 50 µM
IC50 [3]: > 50 µM
IC50 [4]: > 50 µM
IC50 [5]: > 50 µM
IC50 [6]: > 50 µM
IC50 [7]: > 50 µM

C/C(=C\c1cc(-c2ccc(Cl)cc2)cs1)C(N)=O
IC50 [1]: 17.1 µM
IC50 [2]: > 50 µM
IC50 [3]: > 50 µM
IC50 [4]: > 50 µM
IC50 [5]: > 50 µM
IC50 [6]: > 50 µM
IC50 [7]: > 50 µM

C/C(=C\c1cc(-c2ccccc2)co1)C(N)=O
IC50 [1]: 3.34 µM
IC50 [2]: 3.28 µM
IC50 [3]: 42.4 µM
IC50 [4]: > 50 µM
IC50 [5]: > 50 µM
IC50 [6]: > 50 µM
IC50 [7]: > 50 µM

C/C(=C\c1cccc(-c2ccccc2)c1)C(N)=O
IC50 [1]: 6.54 µM
IC50 [2]: 15.7 µM
IC50 [3]: 12.6 µM
IC50 [4]: > 50 µM
IC50 [5]: > 50 µM
IC50 [6]: > 50 µM
IC50 [7]: > 50 µM

C/C(=C\c1cc(-c2ccc(F)nc2)co1)C(N)=O
IC50 [1]: 14.1 µM
IC50 [2]: > 50 µM
IC50 [3]: 30 µM
IC50 [4]: > 50 µM
IC50 [5]: > 50 µM
IC50 [6]: > 50 µM
IC50 [7]: > 50 µM

C/C(=C\c1ccc(-c2ccc(C)cc2)o1)C(N)=O
IC50 [1]: > 50 µM
IC50 [2]: 4.59 µM
IC50 [3]: 1.66 µM
IC50 [4]: > 50 µM
IC50 [5]: > 50 µM
IC50 [6]: > 50 µM
IC50 [7]: > 50 µM

C/C(=C\c1cc(-c2ccc(C(F)(F)F)cc2)cs1)C(N)=O
IC50 [1]: 50 µM
IC50 [2]: > 50 µM
IC50 [3]: > 50 µM
IC50 [4]: > 50 µM
IC50 [5]: > 50 µM
IC50 [6]: > 50 µM
IC50 [7]: > 50 µM

C/C(=C\c1cc(-c2ccc(F)cc2)cs1)C(N)=O
IC50 [1]: 1.44 µM
IC50 [2]: 20.8 µM
IC50 [3]: > 50 µM
IC50 [4]: > 50 µM
IC50 [5]: > 50 µM
IC50 [6]: > 50 µM
IC50 [7]: > 50 µM

C/C(=C\c1cc(C2=CCCC2)co1)C(N)=O
IC50 [1]: 15 µM
IC50 [2]: 17.6 µM
IC50 [3]: > 50 µM
IC50 [4]: 16.6 µM
IC50 [5]: > 50 µM
IC50 [6]: > 50 µM
IC50 [7]: 49.3 µM

C/C(=C\c1nc(-c2ccc(F)cc2)cs1)C(N)=O
IC50 [1]: 3.3 µM
IC50 [2]: 5.4 µM
IC50 [3]: 4.45 µM
IC50 [4]: 13.2 µM
IC50 [5]: > 50 µM
IC50 [6]: > 50 µM
IC50 [7]: > 50 µM

C/C(=C\c1nc(-c2ccccc2)cs1)C(N)=O
IC50 [1]: 2.38 µM
IC50 [2]: 2.77 µM
IC50 [3]: 3.78 µM
IC50 [4]: > 50 µM
IC50 [5]: > 50 µM
IC50 [6]: > 50 µM
IC50 [7]: > 50 µM

COc1ccc(-c2csc(/C=C(\C)C(N)=O)c2)cc1
IC50 [1]: > 50 µM
IC50 [2]: > 50 µM
IC50 [3]: > 50 µM
IC50 [4]: > 50 µM
IC50 [5]: > 50 µM
IC50 [6]: > 50 µM
IC50 [7]: > 50 µM

C/C(=C\c1cc(-c2ccc([N+](=O)[O-])cc2)cs1)C(N)=O
IC50 [1]: 1.21 µM
IC50 [2]: 2.9 µM
IC50 [3]: 2.38 µM
IC50 [4]: 3.5 µM
IC50 [5]: > 50 µM
IC50 [6]: > 50 µM
IC50 [7]: > 50 µM

C/C(=C\c1ccc(-c2ccc(F)cc2)o1)C(N)=O
IC50 [1]: 0.97 µM
IC50 [2]: 2.03 µM
IC50 [3]: 0.99 µM
IC50 [4]: 1.65 µM
IC50 [5]: 3.32 µM
IC50 [6]: 0.94 µM
IC50 [7]: 0.96 µM

C/C(=C\c1cc(-c2ccc(C)nc2)co1)C(N)=O
IC50 [1]: 10.2 µM
IC50 [2]: > 50 µM
IC50 [3]: > 50 µM
IC50 [4]: > 50 µM
IC50 [5]: > 50 µM
IC50 [6]: > 50 µM
IC50 [7]: > 50 µM

C/C(=C\c1cc(-c2ccc(C)cc2)co1)C(N)=O
IC50 [1]: 1.63 µM
IC50 [2]: 12 µM
IC50 [3]: 24.2 µM
IC50 [4]: > 50 µM
IC50 [5]: > 50 µM
IC50 [6]: > 50 µM
IC50 [7]: > 50 µM

C=Cc1ccc(-c2csc(/C=C(\C)C(N)=O)c2)cc1
IC50 [1]: > 50 µM
IC50 [2]: > 50 µM
IC50 [3]: > 50 µM
IC50 [4]: > 50 µM
IC50 [5]: > 50 µM
IC50 [6]: > 50 µM
IC50 [7]: > 50 µM

C/C(=C\c1cc(-c2ccc(S(C)(=O)=O)cc2)cs1)C(N)=O
IC50 [1]: > 50 µM
IC50 [2]: > 50 µM
IC50 [3]: > 50 µM
IC50 [4]: > 50 µM
IC50 [5]: > 50 µM
IC50 [6]: > 50 µM
IC50 [7]: > 50 µM

C/C(=C\c1cc(-c2ccc3c(c2)OCO3)cs1)C(N)=O
IC50 [1]: 3.05 µM
IC50 [2]: > 50 µM
IC50 [3]: > 50 µM
IC50 [4]: > 50 µM
IC50 [5]: > 50 µM
IC50 [6]: > 50 µM
IC50 [7]: > 50 µM

C/C(=C\c1cc(-c2cccnc2)co1)C(N)=O
IC50 [1]: 13.2 µM
IC50 [2]: > 50 µM
IC50 [3]: 8.64 µM
IC50 [4]: 6.62 µM
IC50 [5]: > 50 µM
IC50 [6]: > 50 µM
IC50 [7]: > 50 µM

C/C(=C\c1cc(-c2ccc(C)cc2)cs1)C(N)=O
IC50 [1]: > 50 µM
IC50 [2]: > 50 µM
IC50 [3]: > 50 µM
IC50 [4]: > 50 µM
IC50 [5]: > 50 µM
IC50 [6]: > 50 µM
IC50 [7]: > 50 µM

C/C(=C\c1cc(-c2ccc(F)cc2)co1)C(N)=O
IC50 [1]: 2.21 µM
IC50 [2]: 11.8 µM
IC50 [3]: > 50 µM
IC50 [4]: 14.9 µM
IC50 [5]: > 50 µM
IC50 [6]: > 50 µM
IC50 [7]: > 50 µM

C/C(=C\c1cccc(-c2ccc(C)cc2)c1)C(N)=O
IC50 [1]: 6.71 µM
IC50 [2]: 24.8 µM
IC50 [3]: 26.8 µM
IC50 [4]: 5.1 µM
IC50 [5]: 7.65 µM
IC50 [6]: > 50 µM
IC50 [7]: > 50 µM

C=C1CCC(c2coc(/C=C(\C)C(N)=O)c2)CC1
IC50 [1]: 8.47 µM
IC50 [2]: 5.01 µM
IC50 [3]: 18 µM
IC50 [4]: > 50 µM
IC50 [5]: > 50 µM
IC50 [6]: > 50 µM
IC50 [7]: > 50 µM

C/C(=C\c1nc(-c2ccc(C)cc2)cs1)C(N)=O
IC50 [1]: > 50 µM
IC50 [2]: 25 µM
IC50 [3]: > 50 µM
IC50 [4]: > 50 µM
IC50 [5]: > 50 µM
IC50 [6]: > 50 µM
IC50 [7]: > 50 µM

C/C(=C\c1cc(-c2ccccc2)cs1)C(N)=O
IC50 [1]: 2.68 µM
IC50 [2]: 12.7 µM
IC50 [3]: > 50 µM
IC50 [4]: > 50 µM
IC50 [5]: > 50 µM
IC50 [6]: > 50 µM
IC50 [7]: > 50 µM

C/C(=C\c1cc(-c2ccccc2C)cs1)C(N)=O
IC50 [1]: 4.92 µM
IC50 [2]: 19.4 µM
IC50 [3]: 15.2 µM
IC50 [4]: > 50 µM
IC50 [5]: > 50 µM
IC50 [6]: > 50 µM
IC50 [7]: > 50 µM

C/C(=C\c1cc(-c2ccc(C#N)cc2)cs1)C(N)=O
IC50 [1]: 0.24 µM
IC50 [2]: 0.25 µM
IC50 [3]: 0.13 µM
IC50 [4]: > 50 µM
IC50 [5]: > 50 µM
IC50 [6]: > 50 µM
IC50 [7]: > 50 µM
